According to patent US5888971A, “Macrocyclic peptides useful in the treatment of thrombin related disorders” (Ortho Pharmaceutical Corporation, Inc., priority 1996, dated 1999):

What was measured:
Bovine type 1 trypsin = molecular target: T1, Bovine type 1 trypsin (Bos taurus, UniProt P00760); assay: Trypsin-catalyzed hydrolysis of chromogenic substrate, Ki; format: biochemical; conditions: 3.2 U/ml trypsin, 0.1-0.3 mM Spectrozyme TRY; read-out: Trp Ki
T1 construct: purchased Sigma
T1 sequence (P00760 24-246): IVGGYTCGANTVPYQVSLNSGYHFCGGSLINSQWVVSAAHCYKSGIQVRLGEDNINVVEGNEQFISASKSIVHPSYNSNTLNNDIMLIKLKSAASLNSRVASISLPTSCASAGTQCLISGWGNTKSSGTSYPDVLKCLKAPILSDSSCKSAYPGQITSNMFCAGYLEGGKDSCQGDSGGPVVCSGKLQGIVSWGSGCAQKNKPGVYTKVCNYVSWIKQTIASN
Experimental: (§1) The compounds of the invention were tested for their ability to inhibit thrombin mediated hydrolysis.
Trypsin-catalyzed hydrolysis rates were measured using the same method as the thrombin procedure.

human alpha-thrombin [1] = molecular target: T2, human alpha-thrombin (Homo sapiens, UniProt P00734); assay: Thrombin-catalyzed hydrolysis of chromogenic substrate, Michaelis-Menten Ki; format: biochemical; conditions: 1 nM thrombin, 5-100 μM Spectozyme TH, 37° C., pH 7.4, Michaelis-Menten kinetics; for Ki: read-out: Thr Ki
T2 construct: commercial human alpha-thrombin (American Diagnostica); purchased American Diagnostica
Experimental: as §1
Changes in absorbance at 405 nm were monitored (Softmax, Molecular Devices), upon addition of enzyme, both with and without inhibitor present at 37° C. over 30 minutes. […] Michaelis-Menton kinetics were applied to the initial reaction slopes using the program K Cat (Bio Metallics Inc.).

human alpha-thrombin [2] = molecular target: T2, human alpha-thrombin; assay: Slow, tight-binding kinetics with thrombin (Ki-slow); format: biochemical; conditions: 0.1 nM thrombin, 50 μM Spectozyme TH, 25° C., 4 h; read-out: Thr Ki -slow
Experimental: Ki-slow was determined by measuring enzyme-catalyzed hydrolysis rates. […] The compound numbers in the table correspond to the examples described hereinafter.

thrombin = thrombin (Homo sapiens, UniProt P00734); conditions: background section; cited from earlier work

Row | Molecule | Ki (Bovine type 1 trypsin) [nM] | Ki (human alpha-thrombin [1]) [nM] | Ki (human alpha-thrombin [2]) [nM] | Ki (thrombin) [nM] | selectivity for thrombin over trypsin (thrombin) | Thr Ki (human alpha-thrombin [1])
1 | N=C(N)NCCC[C@@H]1NC(=O)[C@@H]2CCCN2C(=O)[C@@H](NC=O)CNC(=O)/C=C/[C@H](Cc2ccc(O)cc2)NC(=O)[C@@H](Cc2ccccc2)NC(=O)C1=O [CtA, Cyclotheonamide A, reference compound] | 23000 | 170 ± 80 | 4 ± 1.9 | 1 to 2 | does not favor thrombin | 
2 | 5R,15R,19S,21 AS-N-[3-(15-BENZHYDRYL-5-BENZYL-4,7,14,17,18,21-HEXAOXODOCOSAHYDRO-3a,6,13,16,20-PENTMZACYCLOPENTACYCLOEICOSEN-19-YL)PPROPYL]GUANIDINE TRIFLUOROACETIC ACID [Compound 19] | 2.5 ± 0.75 | 5.3 ± 2.6 |  |  |  | 
3 | 6R, 19S, 22S-N-[3-(6-BENZYL-5, 8, 17, 18, 21-PENTAOXODOCOSAHYDRO-4a, 7, 16, 20-TETRAAZABENCBZOCYCLONONADECEN-19-YL) PROPYL] GUANIDINE TRIFLUOROACETIC ACID HYDRATE [Compound 5] | 85 ± 29 | 90 ± 8.6 |  |  |  | 
4 | CN[C@H](Cc1ccccc1)C(=O)N1CCC[C@H]1C(=O)N[C@H](C=O)CCCN=C(N)N [N-Me-PPAC, N-Me PPACK aldehyde, reference compound] |  | 10 |  |  |  | 
5 | N=C(N)NCCCC1NC(=O)CCCCCNC(=O)C(Cc2ccccc2)NC(=O)C1=O (centres unmarked) [Compound 18, N-[3-(3-BENZYL-2,5,6,9-TETRAOXO-1,4,8-TRIAZACYCLOTETRADEC-7-YL)PROPYL]GUANIDINE TRIFLUOROACETIC ACID] | 310 ± 10 | 3800 ± 200 |  |  |  | 
6 | 3S,6S,12R-N-[3-(12-BENZYL-2,5,11,14,20-PENTAOXO-23-THIA-4,10,13,19,24-PENTAAZATRICYCLO[19.2.1.3]-6,10-TETRACOSA-1(2H), 21-DIEN-3-YL)PROPYL]GUANIDINE [Compound 23] | 66 ± 26 | 1000 ± 400 |  |  |  | 
7 | 5R, 2S, 18S-N-[3-(5-NAPTHALEN-2-YLMETHYL-4, 17, 16, 17, 20-PENTAOXOEICOSAHYDRO-3a, 6, 15, 19-TETRAAZACYCLOPENTACYCLONONADECEN-18-YL)PROPYL] GUANIDINE TRIFLUOROACETATE HYDRATE [Compound 6] | 6.8 ± 5 | 21 ± 5 |  |  |  | 
8 | 5R,14R,18S,20aS-N-[3-(5-BENZYL-14-METHYI-4,7,13,16,17,20-HEXAOXOEICOSAHYDRO-3a,6,12,15,19-PENTAAZACYCLOPENTA-CYCLONONADECEN-18-YL)PROPYL]GUANIDINE TRIFLUOROACETIC ACID [Compound 21] | 22 ± 14 | 92 ± 46 | 4.71 ± 1.51 |  |  | 
9 | [20aR-(20aR, 5R, 18S)]-N-[3-(5-PHENYLETHYL-17-HYDROXY-4, 7, 16, 20-TETRAOXOEICOSAHYDRO-3a, 6, 15, 19-TETRA-AZACYCLONONADECANE-18-YL) PROPYIL] GUANIDINE [Compound 22] |  |  |  |  |  | no activity at 50 μM
